This experiment addresses USP1 (Homo sapiens, UniProt O94782). Description: Biochemical Assay for USP1 Inhibition (Ub-Rho 110 fluorescence). To be noted: Table 5; 30 min preincubation, Enzyme 0.025 nM, Substrate Ub-Rho 110 25 nM; read-out: IC50 (μm). On the procedure:
The assay was performed in a final volume of 6 μL in assay buffer containing 20 mM Tris-HCl pH 8.0, (1 M Tris-HCl, pH 8.0 solution; Corning 46-031-CM), 1 mM GSH (L-glutathione reduced, Sigma-Aldrich, G4251-100G), 0.03% BGG (0.22 μM filtered, Sigma, G7516-25G), and 0.01% Triton X-100 (Sigma, T9284-10L). Nanoliter quantities of 10-point, 3-fold serial dilution in DMSO were pre-dispensed into 1536 assay plates (Corning, #3724BC) for a final test concentration of 25 μM to 1.3 nM, top to lowest dose, respectively. Concentration and incubation times were optimized for the maximal signal-to-background while maintaining initial velocity conditions at a fixed substrate concentration (<<Km). 3 μL of 2× Enzyme was added to assay plates (pre-stamped with compound), preincubated for 30 min, and then treated with 3 μL of 2× Substrate (Ub-Rho 110, UbiQ-126). Final concentrations of Enzyme and Substrate are 0.025 nM and 25 nM, respectively. Plates were read using a kinetic protocol continuously for 11 min on the Envision (Perkin Elmer) or PheraSTAR (BMG), excitation at 485 nm and emission at 535 nm or excitation at 520 nm and emission at 590 nm. For all assay formats, data were reported as percent inhibition compared with control wells based on the following equation: % inh=100*([…]), where FLU=measured Fluorescence, AveLow=average Fluorescence of no enzyme control (n=32), and AveHigh=average Fluorescence of DMSO control (n=32). IC50 values were determined by curve fitting of the standard 4 parameter logistic fitting algorithm included in the Activity Base software package: TDBS XE Designer Model205. Data is fitted using the Levenburg Marquardt algorithm.
In Table 5, absolute stereochemistry has not been determined for some Compounds. Accordingly, assignment ofany Compounds as the “R” or “S” stereoisomer is arbitrary, unless otherwise noted. In some cases, Compounds are labeled with “1st eluting isomer”, “2nd eluting isomer”, etc. based on the purification method used to separate the stereoisomers.

The record followed here is patent publication US20220073525A1, “COMPOSITIONS FOR INHIBITING UBIQUITIN SPECIFIC PROTEASE 1” (FORMA Therapeutics, Inc., priority 2019, published 2022).

Some results are limits rather than exact numbers.

USP1, sequence (O94782 whole entry): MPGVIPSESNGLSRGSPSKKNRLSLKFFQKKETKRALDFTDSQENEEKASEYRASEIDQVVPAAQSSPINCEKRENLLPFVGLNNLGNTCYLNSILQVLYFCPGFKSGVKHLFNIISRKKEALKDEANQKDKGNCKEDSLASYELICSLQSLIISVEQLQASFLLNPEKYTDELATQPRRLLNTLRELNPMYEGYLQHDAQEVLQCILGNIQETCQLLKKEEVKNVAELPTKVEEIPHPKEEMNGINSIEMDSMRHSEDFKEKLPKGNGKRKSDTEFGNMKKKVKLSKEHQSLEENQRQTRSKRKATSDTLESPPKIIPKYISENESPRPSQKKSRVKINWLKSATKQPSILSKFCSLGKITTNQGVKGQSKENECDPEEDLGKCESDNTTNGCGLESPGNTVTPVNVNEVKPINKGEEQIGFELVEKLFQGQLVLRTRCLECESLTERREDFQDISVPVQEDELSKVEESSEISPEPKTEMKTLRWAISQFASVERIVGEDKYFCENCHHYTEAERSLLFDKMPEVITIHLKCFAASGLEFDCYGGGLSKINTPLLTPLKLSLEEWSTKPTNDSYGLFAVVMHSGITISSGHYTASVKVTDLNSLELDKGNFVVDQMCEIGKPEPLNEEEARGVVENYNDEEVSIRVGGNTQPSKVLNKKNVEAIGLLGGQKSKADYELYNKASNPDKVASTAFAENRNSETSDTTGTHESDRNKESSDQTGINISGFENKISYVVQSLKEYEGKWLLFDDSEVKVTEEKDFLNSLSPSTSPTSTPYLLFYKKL
USP1, sequence (Q8TAF3 whole entry partner): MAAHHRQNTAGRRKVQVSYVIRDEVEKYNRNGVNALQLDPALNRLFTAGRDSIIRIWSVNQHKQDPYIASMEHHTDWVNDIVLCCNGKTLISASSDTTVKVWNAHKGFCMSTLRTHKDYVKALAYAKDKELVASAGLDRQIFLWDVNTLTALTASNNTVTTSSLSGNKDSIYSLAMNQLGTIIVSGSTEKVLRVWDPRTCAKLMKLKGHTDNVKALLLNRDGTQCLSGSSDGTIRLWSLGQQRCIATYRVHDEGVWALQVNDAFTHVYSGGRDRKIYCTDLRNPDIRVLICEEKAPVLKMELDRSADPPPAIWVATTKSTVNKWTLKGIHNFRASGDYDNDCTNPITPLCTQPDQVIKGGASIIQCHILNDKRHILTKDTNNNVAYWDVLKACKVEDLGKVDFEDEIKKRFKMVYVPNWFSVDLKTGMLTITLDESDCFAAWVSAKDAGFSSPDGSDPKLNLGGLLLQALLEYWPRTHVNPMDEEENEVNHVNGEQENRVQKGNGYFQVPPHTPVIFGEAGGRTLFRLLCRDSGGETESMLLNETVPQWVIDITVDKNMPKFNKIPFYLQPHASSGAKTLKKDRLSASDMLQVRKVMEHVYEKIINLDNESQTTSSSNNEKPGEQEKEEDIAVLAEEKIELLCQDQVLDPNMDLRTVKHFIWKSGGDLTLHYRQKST

Take `Cc1nc(-c2cccnc2C(C)C)c2n1CCN(c1cnc(C#N)nc1)C2` [Compound 83, 5-{3-methyl-1-[2-(propan-2-yl)pyridin-3-yl]-5H,6H,7H,8H-imidazo[1,5-a]pyrazin-7-yl}pyrimidine-2-carbonitrile]: the IC50 (commonly the concentration at which inhibition is half-maximal) was over 25 µM.
As for `Cc1nc(-c2cccnc2C(C)C)c2n1CCN(c1ccc(-n3cccn3)cc1)C2` [Compound 9, 3-{3-methyl-7-[4-(1H-pyrazol-1-yl)phenyl]-5H,6H,7H,8H-imidazo[1,5-a]pyrazin-1-yl}-2-(propan-2-yl)pyridine], the IC50 is 1 to 10 µM.
As for `Cc1nc(-c2cccnc2C(C)C)c2n1CCN(c1ccc(C3(O)COC3)cc1)C2` [Compound 46, 3-(4-{3-methyl-1-[2-(propan-2-yl)pyridin-3-yl]-5H,6H,7H,8H-imidazo[1,5-a]pyrazin-7-yl}phenyl)oxetan-3-ol], the figure is over 25 µM.
Take `Cc1nc(-c2cccnc2C(C)C)c2n1CCN(c1ccc(-c3nc(CO)co3)cc1)C2` [Compound 64, [2-(4-{3-methyl-1-[2-(propan-2-yl)pyridin-3-yl]-5H,6H,7H,8H-imidazo[1,5-a]pyrazin-7-yl}phenyl)-1,3-oxazol-4-yl]methanol]: the IC50 lay in the range of 10 to 25 µM.
As for `Cc1nc(-c2cccnc2C(C)C)c2n1CCN(c1ncccn1)C2` [Compound 10, 2-{3-methyl-1-[2-(propan-2-yl)pyridin-3-yl]-5H,6H,7H,8H-imidazo[1,5-a]pyrazin-7-yl}pyrimidine], the figure is over 25 µM; as for `Cc1nc(-c2cccnc2C(C)C)c2n1CCN(c1ccc(-n3cnnc3)cc1)C2` [Compound 42, 3-{3-methyl-7-[4-(4H-1,2,4-triazol-4-yl)phenyl]-5H,6H,7H,8H-imidazo[1,5-a]pyrazin-1-yl}-2-(propan-2-yl)pyridine], over 25 µM.
Consider `Cc1ccc(N2CCn3c(C)nc(-c4cccnc4C(C)C)c3C2)cc1` [Compound 21, 3-[3-methyl-7-(4-methylphenyl)-5H,6H,7H,8H-imidazo[1,5-a]pyrazin-1-yl]-2-(propan-2-yl)pyridine], for which the IC50 was in the range of 10 to 25 µM.
As for `Cc1cc(N2CCn3c(C)nc(-c4cccnc4C(C)C)c3C2)ccc1N1CCCC1=O` [Compound 35, 1-(2-methyl-4-{3-methyl-1-[2-(propan-2-yl)pyridin-3-yl]-5H,6H,7H,8H-imidazo[1,5-a]pyrazin-7-yl}phenyl)pyrrolidin-2-one], the 50% inhibitory concentration (IC50) is over 25 µM.
In the case of `Cc1nc(-c2cccnc2C(C)C)c2n1C(C)CN(c1ccc(-c3nc(C(F)(F)F)cn3C)cc1)C2` (stereo not drawn) [Compound 56, 3-(3,5-dimethyl-7-{4-[1-methyl-4-(trifluoromethyl)-1H-imidazol-2-yl]phenyl}-5H,6H,7H,8H-imidazo[1,5-a]pyrazin-1-yl)-2-(propan-2-yl)pyridine], the IC50 was at most 1 µM.
As for `Cc1nc(-c2cccnc2C(C)C)c2n1CCN(c1ccc(-c3nc(C(F)(F)F)cn3C)cc1)C2` [Compound 1, 1-(2-isopropylpyridin-3-yl)-3-methyl-7-(4-(1-methyl-4-(trifluoromethyl)-1H-imidazol-2-yl)phenyl)-5,6,7,8-tetrahydroimidazo[1,5-a]pyrazine], the figure is at most 1 µM; as for `Cc1nc(-c2cccnc2C(C)C)c2n1CCN(c1ccc(C3COC(=O)N3)cc1)C2` (stereo not drawn) [Compound 37, 4-(4-{3-methyl-1-[2-(propan-2-yl)pyridin-3-yl]-5H,6H,7H,8H-imidazo[1,5-a]pyrazin-7-yl}phenyl)-1,3-oxazolidin-2-one], over 25 µM.
In the case of `Cc1nc(-c2cccnc2C(C)C)c2n1CCN(c1ccc(N(C)C)cc1)C2` [Compound 18, N,N-dimethyl-4-{3-methyl-1-[2-(propan-2-yl)pyridin-3-yl]-5H,6H,7H,8H-imidazo[1,5-a]pyrazin-7-yl}aniline], the IC50 is over 25 µM.
As for `Cc1nc(-c2cccnc2C(C)C)c2n1CCN(c1cccc(C(=O)N(C)C3CC3)c1)C2` [Compound 60, N-cyclopropyl-N-methyl-3-{3-methyl-1-[2-(propan-2-yl)pyridin-3-yl]-5H,6H,7H,8H-imidazo[1,5-a]pyrazin-7-yl}benzamide], the IC50 is over 25 µM.
In the case of `Cc1nc(-c2cccnc2C(C)C)c2n1CCN(c1ccc(-c3nnn(C)n3)cc1)C2` [Compound 40, 3-{3-methyl-7-[4-(2-methyl-2H-1,2,3,4-tetrazol-5-yl)phenyl]-5H,6H,7H,8H-imidazo[1,5-a]pyrazin-1-yl}-2-(propan-2-yl)pyridine] it was 1 to 10 µM.
Consider `Cc1nc(-c2cccnc2C(C)C)c2n1CCN(c1ccc(C(=O)NCC3CC3)cc1)C2` [Compound 57, N-(cyclopropylmethyl)-4-{3-methyl-1-[2-(propan-2-yl)pyridin-3-yl]-5H,6H,7H,8H-imidazo[1,5-a]pyrazin-7-yl}benzamide], for which the IC50 was over 25 µM.
In the case of `COCCn1cc(-c2ccc(N3CCn4c(C)nc(-c5cccnc5C(C)C)c4C3)cc2)cn1` [Compound 70, 3-(7-{4-[1-(2-methoxyethyl)-1H-pyrazol-4-yl]phenyl}-3-methyl-5H,6H,7H,8H-imidazo[1,5-a]pyrazin-1-yl)-2-(propan-2-yl)pyridine] it was 10 to 25 µM; in that of `Cc1nc(-c2ccccc2C(C)C)c2n1CCN(c1ccc(-c3nc(C(F)(F)F)cn3C)cc1)C2` [Compound 3, 1-methyl-2-(4-{3-methyl-1-[2-(propan-2-yl)phenyl]-5H,6H,7H,8H-imidazo[1,5-a]pyrazin-7-yl}phenyl)-4-(trifluoromethyl)-1H-imidazole], at most 1 µM.
In the case of `Cc1cc(Cl)nn1-c1ccc(N2CCn3c(C)nc(-c4cccnc4OC(F)F)c3C2)cc1` [Compound 81, 3-{7-[4-(3-chloro-5-methyl-1H-pyrazol-1-yl)phenyl]-3-methyl-5H,6H,7H,8H-imidazo[1,5-a]pyrazin-1-yl}-2-(difluoromethoxy)pyridine] it was at most 1 µM; in that of `Cc1nc(-c2cccnc2C(C)C)c2n1CCN(c1ccc(-c3ncn(C)n3)cc1)C2` [Compound 66, 3-{3-methyl-7-[4-(1-methyl-1H-1,2,4-triazol-3-yl)phenyl]-5H,6H,7H,8H-imidazo[1,5-a]pyrazin-1-yl}-2-(propan-2-yl)pyridine], 10 to 25 µM.
In the case of `COc1ccc(N2CCn3c(C)nc(-c4cccnc4C(C)C)c3C2)cc1` [Compound 17, 3-[7-(4-methoxyphenyl)-3-methyl-5H,6H,7H,8H-imidazo[1,5-a]pyrazin-1-yl]-2-(propan-2-yl)pyridine] it was over 25 µM.
Consider `Cc1nc(-c2cccnc2C(C)C)c2n1CCN(c1ccc(C(=O)N3CCC[C@@H]3C)cc1)C2` [Compound 55, 3-(3-methyl-7-{4-[(2S)-2-methylpyrrolidine-1-carbonyl]phenyl}-5H,6H,7H,8H-imidazo[1,5-a]pyrazin-1-yl)-2-(propan-2-yl)pyridine], for which the IC50 fell in the range of 1 to 10 µM.
Regarding `Cc1nc(-c2cccnc2C(C)C)c2n1CCN(c1ccc(F)cc1)C2` [Compound 5, 3-[7-(4-fluorophenyl)-3-methyl-5H,6H,7H,8H-imidazo[1,5-a]pyrazin-1-yl]-2-(propan-2-yl)pyridine], the IC50 was over 25 µM.
As for `Cc1nc(-c2cccnc2C(C)C)c2n1CCN(c1ccc(C#N)cc1)C2` [Compound 6, 4-{3-methyl-1-[2-(propan-2-yl)pyridin-3-yl]-5H,6H,7H,8H-imidazo[1,5-a]pyrazin-7-yl}benzonitrile], the figure is over 25 µM; as for `Cc1nc(-c2cccnc2OC(F)F)c2n1CCN(c1ccc(-c3nc(C(F)(F)F)cn3C)cc1)C2` [Compound 15, 2-(difluoromethoxy)-3-(3-methyl-7-{4-[1-methyl-4-(trifluoromethyl)-1H-imidazol-2-yl]phenyl}-5H,6H,7H,8H-imidazo[1,5-a]pyrazin-1-yl)pyridine], at most 1 µM.
In the case of `Cc1nc(-c2cccnc2C(C)C)c2n1CCN(c1ccc(C(=O)NCc3ccc(-n4ccc(C(F)(F)F)n4)cc3)cc1)C2` [Compound 53, 4-{3-methyl-1-[2-(propan-2-yl)pyridin-3-yl]-5H,6H,7H,8H-imidazo[1,5-a]pyrazin-7-yl}-N-({4-[3-(trifluoromethyl)-1H-pyrazol-1-yl]phenyl}methyl)benzamide] it was 1 to 10 µM; in that of `Cc1nc(-c2cccnc2C(C)C)c2n1CCN(c1ccc(-c3cnn(C4CCOCC4)c3)cc1)C2` [Compound 74, 3-(3-methyl-7-{4-[1-(oxan-4-yl)-1H-pyrazol-4-yl]phenyl}-5H,6H,7H,8H-imidazo[1,5-a]pyrazin-1-yl)-2-(propan-2-yl)pyridine], 10 to 25 µM.
For `Cc1nc(-c2cccnc2C(C)C)c2n1CCN(c1ccc(-c3nccn3C)cc1)C2` [Compound 14, 3-{3-methyl-7-[4-(1-methyl-1H-imidazol-2-yl)phenyl]-5H,6H,7H,8H-imidazo[1,5-a]pyrazin-1-yl}-2-(propan-2-yl)pyridine], the IC50 is 1 to 10 µM.
